Measurements taken from ChEMBL document CHEMBL1124247, “Synthesis and biological evaluation of 8-deazahomofolic acid and its tetrahydro derivative” (J Med Chem, 1988).

Experiments:
Enterococcus faecium [1] = test: Tested for growth inhibition of Streptococcus faecium (MTX resistant); type: functional, organism-based
Lacticaseibacillus casei [2] = test: Tested for growth inhibition of Lactobacillus casei (ATCC […]); type: functional, organism-based
Dihydrofolate reductase = Dihydrofolate reductase (Lactobacillus casei, UniProt P00381); test: Inhibitory activity against dihydrofolate reductase of Lactobacillus casei; design: species or system Lacticaseibacillus casei
Chain of Dihydrofolate reductase (P00381 whole entry): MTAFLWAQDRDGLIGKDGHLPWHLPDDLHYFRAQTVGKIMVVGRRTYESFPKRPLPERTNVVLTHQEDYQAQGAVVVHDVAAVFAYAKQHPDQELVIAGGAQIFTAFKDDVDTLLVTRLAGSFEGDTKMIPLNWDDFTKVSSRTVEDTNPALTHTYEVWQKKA

Lacticaseibacillus casei [3] = test: Tested for growth inhibition of Lactobacillus casei (MTX resistant); type: functional, organism-based
L1210 = test: Tested for growth inhibition of L1210 leukemia cells; type: functional, cell-based; conditions: Mus musculus
Thymidylate synthase [4] = biological target: T1, Thymidylate synthase (Lactobacillus casei, UniProt P00469); test: Inhibitory activity against thymidylate synthase of Lactobacillus casei; design: species or system Lacticaseibacillus casei
T1 sequence (P00469 whole entry): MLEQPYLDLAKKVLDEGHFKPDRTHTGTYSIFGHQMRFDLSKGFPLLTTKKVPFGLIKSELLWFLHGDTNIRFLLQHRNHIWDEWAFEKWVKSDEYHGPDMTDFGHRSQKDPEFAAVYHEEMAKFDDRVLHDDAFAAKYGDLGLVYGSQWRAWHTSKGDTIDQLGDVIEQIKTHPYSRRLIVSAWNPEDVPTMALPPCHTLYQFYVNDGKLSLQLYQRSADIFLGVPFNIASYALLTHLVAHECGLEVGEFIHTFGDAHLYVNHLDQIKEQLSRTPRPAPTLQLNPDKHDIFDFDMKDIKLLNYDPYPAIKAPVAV

Enterococcus faecium [5] = test: Tested for growth inhibition of Streptococcus faecium (ATCC 8043); type: functional, organism-based
Thymidylate synthase [6] = biological target: Thymidylate synthase (Escherichia coli, UniProt C3SWJ7); test: Inhibitory activity against thymidylate synthase of Escherichia coli
Chain of Thymidylate synthase (Escherichia coli, UniProt C3SWJ7) (C3SWJ7 whole entry): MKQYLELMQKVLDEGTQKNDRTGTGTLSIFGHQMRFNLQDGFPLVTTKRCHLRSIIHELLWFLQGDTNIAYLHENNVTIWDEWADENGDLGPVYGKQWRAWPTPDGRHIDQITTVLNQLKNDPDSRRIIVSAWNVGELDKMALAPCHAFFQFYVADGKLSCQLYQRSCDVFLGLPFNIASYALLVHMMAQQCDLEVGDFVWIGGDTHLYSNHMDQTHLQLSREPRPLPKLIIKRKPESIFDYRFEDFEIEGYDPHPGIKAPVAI

Compound `Nc1nc(O)c2nc(CCNc3ccc(C(=O)NC(CCC(=O)O)C(=O)O)cc3)ccc2n1` (stereo unspecified) has an IC50 (Enterococcus faecium [1]) of 1100 nM, an IC50 (Lacticaseibacillus casei [2]) of 19 nM and an IC50 (Dihydrofolate reductase) of 220000 nM. The IC50 (Lacticaseibacillus casei [3]) was 330 nM, the IC50 (L1210) was 87000 nM and the IC50 (Thymidylate synthase [4]) was 160000 nM. It also gave an IC50 (Enterococcus faecium [5]) of 21 nM.

`Nc1nc2c(c(=O)[nH]1)NC(CCNc1ccc(C(=O)NC(CCC(=O)O)C(=O)O)cc1)CC2` (stereo unspecified) was tested, and the IC50 (Enterococcus faecium [1]) was > 100000 nM, the IC50 (Lacticaseibacillus casei [2]) was 35 nM and the IC50 (Dihydrofolate reductase) was 230000 nM. For the same compound, the IC50 (Lacticaseibacillus casei [3]) was > 100000 nM, the IC50 (L1210) was 35700 nM and the IC50 (Thymidylate synthase [4]) was 340000 nM. The IC50 (Enterococcus faecium [5]) was 15 nM.

`Nc1nc(O)c2nc(CCNc3ccc(C(=O)NC(CCC(=O)O)C(=O)O)cc3)cnc2n1` (stereo unspecified) was tested, and the IC50 (Lacticaseibacillus casei [2]) was 220 nM and the IC50 (Enterococcus faecium [5]) was 2200 nM.

For `Nc1nc(O)c2nc(CNc3ccc(C(=O)NC(CCC(=O)O)C(=O)O)cc3)ccc2n1` (stereo unspecified), the IC50 (Enterococcus faecium [1]) was 294 nM, the IC50 (Lacticaseibacillus casei [2]) was 1.4 nM and the IC50 (Dihydrofolate reductase) was 12000 nM. It also gave an IC50 (Lacticaseibacillus casei [3]) of 2040 nM, an IC50 (L1210) of 1330 nM and an IC50 (Thymidylate synthase [4]) of 14000 nM. The IC50 (Enterococcus faecium [5]) was 0.3 nM.

In the case of `Nc1nc(O)c2c(n1)CCC(CNc1ccc(C(=O)NC(CCC(=O)O)C(=O)O)cc1)N2` (stereo unspecified), the IC50 (Enterococcus faecium [1]) is reported as 1040 nM, the IC50 (Lacticaseibacillus casei [2]) is reported as 2.7 nM and the IC50 (Dihydrofolate reductase) is reported as 55000 nM. For the same compound, the IC50 (Lacticaseibacillus casei [3]) was > 4000 nM, the IC50 (Thymidylate synthase [4]) was 75000 nM and the IC50 (Enterococcus faecium [5]) was 1.6 nM.

In the case of `Nc1nc(O)c2c(n1)NCC(CCNc1ccc(C(=O)NC(CCC(=O)O)C(=O)O)cc1)N2` (stereo unspecified), the IC50 (Lacticaseibacillus casei [2]) is reported as 13 nM, the IC50 (Thymidylate synthase [6]) is reported as 2000 nM and the IC50 (Enterococcus faecium [5]) is reported as 1.5 nM.

`CN(Cc1cnc2nc(N)nc(N)c2n1)c1ccc(C(=O)N[C@@H](CCC(=O)O)C(=O)O)cc1` [METHOTREXATE] was tested, and the IC50 (Enterococcus faecium [1]) was 8000 nM, the IC50 (Lacticaseibacillus casei [2]) was 0.05 nM and the IC50 (L1210) was 3.9 nM. The IC50 (Enterococcus faecium [5]) was 0.8 nM.
